The values that follow come from patent publication US10022453B2 (BAYER PHARMA AKTIENGESELLSCHAFT, priority 2013, dated 2018).

For data set [1], the target named is T1, human kinesin spindle protein KSP/Eg5 (Homo sapiens, UniProt P52732).
T1 construct: The motor domain of the human kinesin spindle protein KSP/Eg5; purchased tebu-bio/Cytoskeleton Inc 027EG01-XL
T1 sequence (P52732 18-359 limits assumed): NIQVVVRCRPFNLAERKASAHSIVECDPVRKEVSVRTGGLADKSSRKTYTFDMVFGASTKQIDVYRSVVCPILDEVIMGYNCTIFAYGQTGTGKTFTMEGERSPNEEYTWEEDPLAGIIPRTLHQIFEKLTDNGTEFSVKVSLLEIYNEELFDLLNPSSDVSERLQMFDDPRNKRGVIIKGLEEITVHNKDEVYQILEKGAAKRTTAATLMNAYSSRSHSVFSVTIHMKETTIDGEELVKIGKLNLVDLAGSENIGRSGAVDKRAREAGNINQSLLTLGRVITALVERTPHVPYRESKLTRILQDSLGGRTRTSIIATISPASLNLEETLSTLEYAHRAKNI
The experiment in a line: Inhibition of the kinesin spindle protein KSP/Eg5 (ATPase, malachite green). The data set is classed as biochemical. The settings on record: 10 nM KSP motor domain, 500 μM ATP, 2 h RT. The protocol:
C-1b Determination of the Inhibition of the Kinesin Spindle Protein KSP/Eg5 by Selected Examples
The motor domain of the human kinesin spindle protein KSP/Eg5 (from tebu-bio/Cytoskeleton Inc, No. 027EG01-XL) is incubated at a concentration of 10 nM with 50 μg/ml taxol- (from Sigma No. T7191-5MG) stabilized microtubuli (bovine or porcine, from tebu-bio/Cytoskeleton Inc) for 5 min at RT in 15 mM PIPES, pH 6.8 (5 mM MgCl2 and 10 mM DTT, from Sigma). The freshly prepared mixture is aliquoted into a 384-well MTP. The inhibitors to be examined at concentrations of 1.0×10^−6 M to 1.0×10^−13 and ATP (final concentration 500 μM, from Sigma) are then added. Incubation is at RT for 2 h. ATPase activity is detected by detecting the inorganic phosphate formed using malachite green (from Biomol). […] The individual data of the dose-activity curve are eight-fold determinations. The IC50 values are means of three independent experiments.

Data set [2] can be described thus: Cell permeability, flux assay using Caco-2 cells. The settings on record: human, Caco-2. The procedure: C-3 In Vitro Tests for Determining Cell Permeability
The cell permeability of a substance can be investigated by means of in vitro testing in a flux assay using Caco-2 cells [M. D. Troutman and D. R. Thakker, Pharm. […] For this purpose, the cells were cultured for 15-16 days on 24-well filter plates. For the determination of permeation, the respective working example was applied in a HEPES buffer to the cells either apically (A) or basally (B) and incubated for 2 hours. After 0 hours and after 2 hours, samples were taken from the cis and trans compartments. The samples were separated by HPLC (Agilent 1200, Böblingen, Germany) using reverse phase columns.
Of critical importance for toxophores which are released intracellularly is the permeability from B to A [Papp(B-A)] and the ratio of Papp(B-A) to Papp(A-B) (efflux ratio): the lower this permeability, the slower the active and passive transport processes of the substance through the monolayer of Caco-2 cells.

On to `C[C@H](NC(=O)CCNC(=O)[C@@H](N)CCN(C(=O)CO)[C@@H](c1nc(-c2cc(F)ccc2F)cn1Cc1ccccc1)C(C)(C)C)C(=O)N[C@@H](CCCNC(N)=O)C(=O)Nc1ccc(NC(=O)CN2C(=O)CC(SC[C@H](N)C(=O)O)C2=O)cc1` (stereo partly drawn) [Example 65, N-{(2S)-2-Amino-4-[{(1R)-1-[1-benzyl-4-(2,5-difluorophenyl)-1H-imidazol-2-yl]-2,2-dimethylpropyl}(glycoloyl)amino]butanoyl}-beta-alanyl-L-alanyl-N-(4-{[(3-{[(2R)-2-amino-2-carboxyethyl]sulphanyl}-2,5-dioxopyrrolidin-1-yl)acetyl]amino}phenyl)-N^5-carbamoyl-L-ornithinamide], for which, in data set [1], the half-inhibitory concentration (IC50) was found to be 2.03 nM. In data set [2], the apparent permeability from basolateral to apical (Papp B→A) at 2 h worked out at 0.12 ×10⁻⁶ cm/s and the efflux ratio at 2 h was 2.3.
The corresponding values for `CC(C)(C)[C@H](c1nc(-c2cc(F)ccc2F)cn1Cc1ccccc1)N(CC[C@H](N)C(=O)NCCC(=O)Nc1ccc(N2C(=O)CC(SC[C@H](N)C(=O)O)C2=O)cc1)C(=O)CO` (stereo partly drawn) [Example 66, S-(1-{4-[(N-{(2S)-2-Amino-4-[{(1R)-1-[1-benzyl-4-(2,5-difluorophenyl)-1H-imidazol-2-yl]-2,2-dimethylpropyl}(glycoloyl)amino]butanoyl}-beta-alanyl)amino]phenyl}-2,5-dioxopyrrolidin-3-yl)-L-cysteine] are 8.08 nM, 2.7 ×10⁻⁶ cm/s and 12.
As for `CC(C)(C)[C@H](c1nc(-c2cc(F)ccc2F)cn1Cc1ccccc1)N(CC[C@H](N)C(=O)N[C@H]1CCC[C@H]1C(=O)NCCN1C(=O)CC(SC[C@H](N)C(=O)O)C1=O)C(=O)CO` (stereo partly drawn) [Example 67, S-{1-[2-({[(1R,2S)-2-({(2S)-2-Amino-4-[{(1R)-1-[1-benzyl-4-(2,5-difluorophenyl)-1H-imidazol-2-yl]-2,2-dimethylpropyl}(glycoloyl)amino]butanoyl}amino)cyclopentyl]carbonyl}amino)ethyl]-2,5-dioxopyrrolidin-3-yl}-L-cysteine], the IC50 in data set [1] is 8.07 nM. For the same compound, in data set [2], the Papp B→A at 2 h is 2.5 ×10⁻⁶ cm/s and the efflux ratio at 2 h amounted to 15.
On to `C[C@H](NC(=O)CCNC(=O)[C@@H](N)CCN(C(=O)CO)[C@@H](c1nc(-c2cc(F)ccc2F)cn1Cc1ccccc1)C(C)(C)C)C(=O)N[C@@H](CCCNC(N)=O)C(=O)Nc1ccc(N2C(=O)CC(SC[C@H](N)C(=O)O)C2=O)cc1` (stereo partly drawn) [Example 68, N-{(2S)-2-Amino-4-[{(1R)-1-[1-benzyl-4-(2,5-difluorophenyl)-1H-imidazol-2-yl]-2,2-dimethylpropyl}(glycoloyl)amino]butanoyl}-beta-alanyl-L-alanyl-N-[4-(3-{[(2R)-2-amino-2-carboxyethyl]sulphanyl}-2,5-dioxopyrrolidin-1-yl)phenyl]-N^5-carbamoyl-L-ornithinamide], for which, in data set [1], the midpoint of inhibition, the IC50, lay at 3.22 nM. In addition, in data set [2], the Papp B→A at 2 h stood at 0.18 ×10⁻⁶ cm/s and the efflux ratio at 2 h came out at 1.9.
Taken in the same sequence, the figures for `CC(C)[C@H](NC(=O)CCNC(=O)[C@@H](N)CCN(C(=O)CO)[C@@H](c1nc(-c2cc(F)ccc2F)cn1Cc1ccccc1)C(C)(C)C)C(=O)N[C@@H](CCCNC(N)=O)C(=O)Nc1ccc(CC(=O)NCCN2C(=O)CC(SC[C@H](N)C(=O)O)C2=O)cc1` (stereo partly drawn) [Example 69, N-{(2S)-2-Amino-4-[{(1R)-1-[1-benzyl-4-(2,5-difluorophenyl)-1H-imidazol-2-yl]-2,2-dimethylpropyl}(glycoloyl)amino]butanoyl}-beta-alanyl-L-valyl-N-[4-(2-{[2-(3-{[(2R)-2-amino-2-carboxyethyl]sulphanyl}-2,5-dioxopyrrolidin-1-yl)ethyl]amino}-2-oxoethyl)phenyl]-N^5-carbamoyl-L-ornithinamide] were 4.82 nM, 0.15 ×10⁻⁶ cm/s and 2.
As to `C[C@H](NC(=O)CCNC(=O)[C@@H](N)CCN(C(=O)CO)[C@@H](c1nc(-c2cc(F)ccc2F)cn1Cc1ccccc1)C(C)(C)C)C(=O)N[C@@H](CCCNC(N)=O)C(=O)Nc1ccc(CC(=O)NCCN2C(=O)CC(SC[C@H](N)C(=O)O)C2=O)cc1` (stereo partly drawn) [Example 70, N-{(2S)-2-Amino-4-[{(1R)-1-[1-benzyl-4-(2,5-difluorophenyl)-1H-imidazol-2-yl]-2,2-dimethylpropyl}(glycoloyl)amino]butanoyl}-beta-alanyl-L-alanyl-N-[4-(2-{[2-(3-{[(2R)-2-amino-2-carboxyethyl]sulphanyl}-2,5-dioxopyrrolidin-1-yl)ethyl]amino}-2-oxoethyl)phenyl]-N^5-carbamoyl-L-ornithinamide], in data set [1], half-maximal inhibition (IC50) was put at 3.18 nM. Also, in data set [2], the Papp B→A at 2 h was determined as 0.16 ×10⁻⁶ cm/s and the efflux ratio at 2 h was 1.9.
For the compound `CC(C)(C)[C@H](c1nc(-c2cc(F)ccc2F)cn1Cc1ccccc1)N(CC[C@H](N)C(=O)NCCOCCOCCOCCC(=O)O)C(=O)CO.O=C(O)C(F)(F)F` [Example 71, (15S,19R)-15-Amino-19-[1-benzyl-4-(2,5-difluorophenyl)-1H-imidazol-2-yl]-18-glycoloyl-20,20-dimethyl-14-oxo-4,7,10-trioxa-13,18-diazahenicosan-1-oic acid/trifluoroacetic acid (1:1)], half-maximal inhibition in data set [1] (IC50) was put at 1.22 nM. Moreover, in data set [2], the Papp B→A at 2 h is 28 ×10⁻⁶ cm/s and the efflux ratio at 2 h was 280.
`CC(C)[C@H](NC(=O)CCNC(=O)[C@@H](N)CCN(C(=O)CO)[C@@H](c1nc(-c2cc(F)ccc2F)cn1Cc1ccccc1)C(C)(C)C)C(=O)N[C@@H](CCCNC(N)=O)C(=O)O.O=C(O)C(F)(F)F` [Example 72, N-{(2S)-2-Amino-4-[{(1R)-1-[1-benzyl-4-(2,5-difluorophenyl)-1H-imidazol-2-yl]-2,2-dimethylpropyl}(glycoloyl)amino]butanoyl}-beta-alanyl-L-valyl-N^5-carbamoyl-L-ornithine/trifluoroacetic acid (1:1)] gave an IC50 in data set [1] of 4.85 nM. Moreover, in data set [2], the Papp B→A at 2 h amounted to 0.25 ×10⁻⁶ cm/s and the efflux ratio at 2 h was 2.1.
Taken in the same sequence, the figures for `C[C@H](NC(=O)CCNC(=O)[C@@H](N)CCN(C(=O)CO)[C@@H](c1nc(-c2cc(F)ccc2F)cn1Cc1ccccc1)C(C)(C)C)C(=O)N[C@@H](CCCNC(N)=O)C(=O)O.O=C(O)C(F)(F)F` [Example 73, N-{(2S)-2-Amino-4-[{(1R)-1-[1-benzyl-4-(2,5-difluorophenyl)-1H-imidazol-2-yl]-2,2-dimethylpropyl}(glycoloyl)amino]butanoyl}-beta-alanyl-L-alanyl-N^5-carbamoyl-L-ornithine/trifluoroacetic acid (1:1)] were 4.52 nM, 0.46 ×10⁻⁶ cm/s and 2.7.
The corresponding values for `CC(C)(C)[C@H](c1nc(-c2cc(F)ccc2F)cn1Cc1ccccc1)N(CC[C@H](N)C(=O)NCCC(=O)N[C@@H](Cc1ccc(N)cc1)C(=O)O)C(=O)CO.O=C(O)C(F)(F)F.O=C(O)C(F)(F)F` [Example 74, N-{(2S)-2-Amino-4-[{(1R)-1-[1-benzyl-4-(2,5-difluorophenyl)-1H-imidazol-2-yl]-2,2-dimethylpropyl}(glycoloyl)amino]butanoyl}-beta-alanyl-4-amino-L-phenylalanine/trifluoroacetic acid (1:2)] are 6.13 nM, 2.6 ×10⁻⁶ cm/s and 15.
The corresponding values for `CC(C)(C)[C@H](c1nc(-c2cc(F)ccc2F)cn1Cc1ccccc1)N(CC[C@H](N)C(=O)O)C(=O)CO.O=C(O)C(F)(F)F` [Example 76, (2S)-2-Amino-4-[{(1R)-1-[1-benzyl-4-(2,5-difluorophenyl)-1H-imidazol-2-yl]-2,2-dimethylpropyl}(glycoloyl)amino]butanoic acid/trifluoroacetic acid (1:1)] are 2.33 nM, 5.5 ×10⁻⁶ cm/s and 27.
The compound `CC(C)(C)[C@H](c1nc(-c2cc(F)ccc2F)cn1Cc1ccccc1)N(CC[C@H](N)CN)C(=O)CO.O=C(O)C(F)(F)F` [Example 78, Trifluoroacetic acid/N-{(1R)-1-[1-benzyl-4-(2,5-difluorophenyl)-1H-imidazol-2-yl]-2,2-dimethylpropyl}-N-[(3S)-3,4-diaminobutyl]-2-hydroxyacetamide (1:1)] returned an IC50 in data set [1] of 4.95 nM. Moreover, in data set [2], the apparent permeability from basolateral to apical (Papp B→A) at 2 h came out at 14 ×10⁻⁶ cm/s and the efflux ratio at 2 h stood at 44.
